Experimental data reported in paper PMC12006171, “Marsupial cathelicidins: characterization, antimicrobial activity and evolution in this unique mammalian lineage” (Frontiers in Immunology, 2025).
In brackets after ≈: the same amount, converted by molar mass. Read-outs that look alike come from different tables or passages of the source. Where a SMILES comes first, the peptide text is derived from it.

Tests used:
Assay type in all cases: cell-based
[1] = tested on: Pseudomonas aeruginosa ATCC 27853; assay: microbe, parasite or virus in culture; conditions: ATCC 27853
Procedure, shortened: (§1)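 Bacteria at a final 5 x 10^5 CFU/mL were incubated 20–24 h at 35 °C with DMSO-solubilized peptides serially diluted to 64–0.125 μg/mL in Mueller Hinton broth (± lysed horse blood, ± divalent cations). MIC read as no visible growth; bactericidal action from colony counts compared with the inoculum.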

[2] = tested on: Staphylococcus aureus clinical isolate - animal; assay: microbe, parasite or virus in culture; conditions: clinical isolate - animal
Procedure, shortened: as §1

[3] = tested on: Staphylococcus aureus ATCC 29213; assay: microbe, parasite or virus in culture; conditions: ATCC 29213
Procedure, shortened: as §1

[4] = tested on: Pseudomonas aeruginosa clinical isolate - animal; assay: microbe, parasite or virus in culture; conditions: clinical isolate - animal
Procedure, shortened: as §1

[5] = tested on: Escherichia coli clinical isolate - animal; assay: microbe, parasite or virus in culture; conditions: clinical isolate - animal
Procedure, shortened: as §1

[6] = tested on: Escherichia coli ATCC 25922; assay: microbe, parasite or virus in culture; conditions: ATCC 25922
Procedure, shortened: as §1

[7] = tested on: Streptococcus agalactiae Clinical isolate - animal; assay: microbe, parasite or virus in culture; conditions: clinical isolate - animal
Procedure, shortened: (§2)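 Endpoint is visible-growth inhibition (MIC) after 35°C, 20–24 h incubation. Yeast medium was RPMI-1640 MOPS; bacterial medium was Mueller Hinton broth, with or without divalent cations and lysed horse blood. Final peptide range 64-0.125μg/mL.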

[8] = tested on: Streptococcus agalactiae ATCC 12386; assay: microbe, parasite or virus in culture; conditions: ATCC 12386
Procedure, shortened: as §2

[9] = tested on: Candida parapsilosis ATCC 22019; assay: microbe, parasite or virus in culture; conditions: ATCC 22019
Procedure, shortened: as §2

Candida krusei ATCC 6258 = assay: microbe, parasite or virus in culture; conditions: ATCC 6258
Procedure, shortened: as §2

[10] = tested on: Streptococcus pneumoniae ATCC 49619; assay: microbe, parasite or virus in culture; conditions: ATCC 49619
Procedure, shortened: as §2

[11] = tested on: Candida albicans Clinical isolate - human; assay: microbe, parasite or virus in culture; conditions: Clinical isolate - human
Procedure, shortened: as §2

[12] = tested on: Staphylococcus aureus clinical isolate – animal, methicillin-resistant (MRSA); conditions: clinical isolate – animal, methicillin-resistant
Procedure, shortened: as §2

[13] = tested on: Staphylococcus aureus clinical isolate – animal, penicillin-resistant (PRSA); conditions: clinical isolate – animal, penicillin-resistant (PRSA)
Procedure, shortened: as §2

[14] = read-out: MIC in the presence of cations E. coli ATCC

## CC[C@H](C)[C@H](NC(=O)[C@H](CCCNC(=N)N)NC(=O)[C@@H](NC(=O)[C@H](CCCNC(=N)N)NC(=O)[C@@H](N)CCCCN)[C@@H](C)CC)C(=O)N[C@@H](CC(C)C)C(=O)NCC(=O)N[C@@H](CCCNC(=N)N)C(=O)N[C@@H](CC(C)C)C(=O)N[C@@H](Cc1c[nH]c2ccccc12)C(=O)N[C@@H](CC(=O)O)C(=O)NCC(=O)N[C@@H](CC(C)C)C(=O)N[C@@H](CCCNC(=N)N)C(=O)N[C@@H](CC(N)=O)C(=O)N[C@@H](CC(C)C)C(=O)NCC(=O)N[C@@H](CC(N)=O)C(=O)N[C@@H](CCCNC(=N)N)C(=O)N[C@H](C(=O)N[C@@H](CCCNC(=N)N)C(=O)N[C@@H](CC(N)=O)C(=O)N[C@@H](CCCNC(=N)N)C(=O)N[C@H](C(=O)N[C@@H](CCCNC(=N)N)C(=O)N[C@@H](CC(=O)O)C(=O)N[C@@H](Cc1ccccc1)C(=O)N[C@@H](Cc1ccccc1)C(=O)N[C@@H](CO)C(=O)O)[C@@H](C)CC)[C@@H](C)CC [MyfaCath5] (H-KRIRILGRLWDGLRNLGNRIRNRIRDFFS-OH)
[1]; read-out: MIC P. aeruginosa ATCC
  MIC: >17.7 µM
[2]
  MBC S. aureus: 8.8 µM (≈ 31.8 µg/mL)
[2]; read-out: MIC S. aureus
  MIC: 4.4 µM (≈ 15.9 µg/mL)
[2]; read-out: MIC in the presence of cations S. aureus
  MIC: 4.4 µM
[3]
  MBC S. aureus ATCC: 17.7 µM (≈ 63.9 µg/mL)
[3]; read-out: MIC S. aureus ATCC
  MIC: 8.8 µM (≈ 31.8 µg/mL)
[3]; read-out: MIC in the presence of cations S. aureus ATCC
  MIC: 4.4 µM
[4]; read-out: MIC P. aeruginosa
  MIC: >17.7 µM
[5]
  MBC E. coli: 8.8 (8.8)^8.8 µM
  MIC E. coli: 8.8 (8.8)^8.8 µM
  MIC in the presence of cations E. coli: 8.8 (8.8)^8.8 µM
[6]
  MBC E. coli ATCC: 17.7 µM (≈ 63.9 µg/mL)
[6]; read-out: MIC E. coli ATCC
  MIC: 8.8 µM (≈ 31.8 µg/mL)
[6]; [14]
  MIC: 8.8 µM
[7]; read-out: MIC S. agalactiae
  MIC: >17.7 µM
[8]; read-out: MIC S. agalactiae ATCC
  MIC: >17.7 µM
[9]
  MFC C. parapsilosis ATCC: 17.7 µM (≈ 63.9 µg/mL)
  MIC C. parapsilosis ATCC: 17.7 µM (≈ 63.9 µg/mL)
Candida krusei ATCC 6258
  MFC C. krusei ATCC: 4.4 µM
  MIC C. krusei ATCC: 4.4 µM (≈ 15.9 µg/mL)
[10]; read-out: MIC S. pneumoniae ATCC
  MIC: >17.7 µM
[11]; read-out: MIC C. albicans
  MIC: >17.7 µM
[12]
  MBC MRSA: 8.8 µM (≈ 31.8 µg/mL)
  MIC MRSA: 8.8 µM (≈ 31.8 µg/mL)
[13]
  MBC PRSA: 2.2 µM (≈ 7.95 µg/mL)
  MIC PRSA: 2.2 µM (≈ 7.95 µg/mL)

## CC[C@H](C)[C@H](NC(=O)[C@H](CCCNC(=N)N)NC(=O)CNC(=O)[C@H](CCCNC(=N)N)NC(=O)[C@@H](N)CCCCN)C(=O)N[C@@H](Cc1ccccc1)C(=O)N[C@@H](CCCNC(=N)N)C(=O)N[C@@H](CCCCN)C(=O)N[C@@H](Cc1ccccc1)C(=O)N[C@@H](CCCCN)C(=O)N[C@@H](CCCCN)C(=O)N[C@@H](CC(C)C)C(=O)N[C@@H](CC(C)C)C(=O)N[C@@H](CCCCN)C(=O)N[C@@H](CCCCN)C(=O)N[C@@H](CC(C)C)C(=O)NCC(=O)N[C@@H](CC(=O)O)C(=O)N[C@@H](CCCCN)C(=O)N[C@H](C(=O)N[C@@H](CCCCN)C(=O)N[C@@H](CC(N)=O)C(=O)N[C@H](C(=O)N[C@@H](CC(C)C)C(=O)N[C@@H](CCCCN)C(=O)N[C@@H](CC(N)=O)C(=O)N[C@@H](C)C(=O)N[C@@H](CCCNC(=N)N)C(=O)N[C@@H](CC(N)=O)C(=O)NCC(=O)N[C@@H](Cc1ccccc1)C(=O)N[C@@H](CC(C)C)C(=O)NCC(=O)N1CCC[C@H]1C(=O)N[C@H](C(=O)NCC(=O)N[C@@H](CCCNC(=N)N)C(=O)O)[C@@H](C)CC)[C@@H](C)O)[C@@H](C)CC [MAP8] (H-KRGRIFRKFKKLLKKLGDKIKNTLKNARNGFLGPIGR-OH)
[1]
  MBC P. aeruginosa ATCC: 3.7 (3.7)^3.7 µM
  MIC P. aeruginosa ATCC: 3.7 (3.7)^3.7 µM
  MIC in the presence of cations P. aeruginosa ATCC: 3.7 (3.7)^3.7 µM
[2]
  MBC S. aureus: 7.4 (7.4)^7.4 µM
  MIC S. aureus: 7.4 (7.4)^7.4 µM
  MIC in the presence of cations S. aureus: 7.4 (7.4)^7.4 µM
[3]
  MBC S. aureus ATCC: 7.4 (7.4)^7.4 µM
  MIC S. aureus ATCC: 7.4 (7.4)^7.4 µM
  MIC in the presence of cations S. aureus ATCC: 7.4 (7.4)^7.4 µM
[4]
  MBC P. aeruginosa: 7.4 µM (≈ 31.9 µg/mL)
[4]; read-out: MIC P. aeruginosa
  MIC: 3.7 µM (≈ 16 µg/mL)
[4]; read-out: MIC in the presence of cations P. aeruginosa
  MIC: 3.7 µM
[5]
  MBC E. coli: 3.7 µM (≈ 16 µg/mL)
  MIC: 3.7 µM (≈ 16 µg/mL)
  MIC in the presence of cations E. coli: 1.8 µM
[6]
  MBC E. coli ATCC: 7.4 µM (≈ 31.9 µg/mL)
[6]; read-out: MIC E. coli ATCC
  MIC: 3.7 µM (≈ 16 µg/mL)
[6]; [14]
  MIC: 3.7 µM
[7]
  MBC S. agalactiae: 7.4 µM (≈ 31.9 µg/mL)
  MIC S. agalactiae: 7.4 µM (≈ 31.9 µg/mL)
[8]
  MBC S. agalactiae ATCC: 14.8 µM (≈ 63.8 µg/mL)
  MIC S. agalactiae ATCC: 14.8 µM (≈ 63.8 µg/mL)
[9]; read-out: MIC C. parapsilosis ATCC
  MIC: 7.4 µM (≈ 31.9 µg/mL)
Candida krusei ATCC 6258
  MFC C. krusei ATCC: > 64 µg/mL
[10]
  MBC S. pneumoniae ATCC: 7.4 µM (≈ 31.9 µg/mL)
  MIC S. pneumoniae ATCC: 7.4 µM (≈ 31.9 µg/mL)
[11]
  MIC C. albicans: >64 µg/mL
[12]
  MBC MRSA: > 14.8 µM
  MIC MRSA: 14.8 µM (≈ 63.8 µg/mL)
[13]
  MBC PRSA: 7.4 µM (≈ 31.9 µg/mL)
  MIC PRSA: 3.7 µM (≈ 16 µg/mL)
